Data: PMC10376691, “Inhibition of Acetylcholinesterase and Amyloid-β Aggregation by Piceatannol and Analogs: Assessing In Vitro and In Vivo Impact on a Murine Model of Scopolamine-Induced Memory Impairment” (Antioxidants, 2023)
Where two headings read alike, the source gives them in different places.

Key:
[1] = DPPH radical scavenging activity
Procedure: DPPH radical scavenging activity was assayed following a previous report, with some modifications. […] DMSO was used instead of a sample solution in the blank group. […] The scavenging activity of the DPPH radical (%) was calculated with the following equation: (△A515blank − △A515sample) ÷ △A515blank × 100%. The IC50 of the DPPH radical scavenging activity of PIC and its analogs or that of Trolox was calculated from each linear equation by three test concentrations and their radical scavenging activities.

[2] = biological target: T1, recombinant human AChE (Homo sapiens, UniProt P22303); experiment: AChE inhibitory activity in vitro (acetylthiocholine/DTNB); type: biochemical
T1 construct: purchased R&D Systems Inc. (Minneapolis, MN, USA)
T1 sequence (P22303 32-614): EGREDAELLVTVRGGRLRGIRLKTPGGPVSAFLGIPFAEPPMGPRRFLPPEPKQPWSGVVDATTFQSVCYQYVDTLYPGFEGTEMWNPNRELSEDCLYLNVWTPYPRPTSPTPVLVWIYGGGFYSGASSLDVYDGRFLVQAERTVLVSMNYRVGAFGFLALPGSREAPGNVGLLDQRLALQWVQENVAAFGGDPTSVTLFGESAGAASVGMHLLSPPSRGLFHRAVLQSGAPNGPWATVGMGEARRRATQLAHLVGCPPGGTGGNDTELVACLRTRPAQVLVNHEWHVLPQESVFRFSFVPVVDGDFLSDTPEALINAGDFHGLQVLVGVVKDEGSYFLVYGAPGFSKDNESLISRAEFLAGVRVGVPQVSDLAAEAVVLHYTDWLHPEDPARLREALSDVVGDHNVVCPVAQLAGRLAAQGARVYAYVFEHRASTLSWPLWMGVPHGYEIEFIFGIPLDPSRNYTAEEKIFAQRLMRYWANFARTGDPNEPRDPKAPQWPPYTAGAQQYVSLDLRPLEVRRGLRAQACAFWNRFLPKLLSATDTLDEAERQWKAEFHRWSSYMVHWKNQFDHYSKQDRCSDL
Procedure: Commercially synthesized acetylthiocholine iodide was hydrolyzed using AChE to release thiocholine, which was coupled with DTNB to generate the yellowish 5-thio-2-nitrobenzoate for in vitro AChE activity assays. For the AChE inhibitory activity assay, each analog was dissolved in the DMSO, and final concentrations of 100, 200, and 500 μM were used for comparisons. An equal volume of DMSO instead of the sample solution was used in the blank group and expressed as 100% AChE activity. […] AChE inhibition (%) was calculated as follows: [(A405blank − A405sample)/(A405blank)] × 100%.

[3] = test system: SH-SY5Y cells; experiment: Neuroprotection against Aβ peptide (25–35)-induced cell deaths (MTT); type: cell-based, human; conditions: pre-treatment 1, 2 and 10 μM for 24 h, then 40 μg/mL Aβ (25–35) 24 h; vs control p < 0.05
Procedure: The human SH-SY5Y neuroblastoma cell lines (CRL-2266, Lot No. 58979771) were purchased from American Type Culture Collection (Manassas, VA, USA) and used as models to investigate PIC and its analogs for neuroprotective activities against Aβ-induced cell deaths and the stimulation of neurite outgrowths. The SH-SY5Y cells were grown in DMEM/F-12 medium supplemented with 10% FBS at 37 °C under a humidified atmosphere and 5% CO2 [41]. […]. The SH-SY5Y cells (10,000 cells/well) were seeded and cultured in a DMEM/F-12 medium containing 10% FBS for 24 h at 37 °C under a humidified atmosphere and 5% CO2. […] The medium was then removed, and 40 μg/mL Aβ peptide (25–35) (dissolved in PBS) or an equal aliquot of PBS was added to the medium for another 24 h culture. The MTT was used to evaluate cell viability, and the absorbance at 570 nm was determined. The DMSO used instead of the sample solution was blank (recognized as 100%), and each treatment was expressed as relative cell viability (%). To study the stimulation of neurite outgrowth, the SH-SY5Y cells (5000 cells/well) were seeded on a 96-well plate pre-coated with poly-L-lysine and then cultured in the DMEM/F-12 medium containing 10% FBS overnight at 37 °C under a humidified atmosphere and 5% CO2. After being removed from the culture medium, each PIC, GNT, RHA, and isoRHA (at a final concentration of 10 μM in the 0.1%DMSO) or 0.1% DMSO (the control) was added to the DMEM/F-12 medium containing 10% FBS and refreshed every three days. On day 3 and day 6, each of the culture plates was photographed using an inverted microscope (ECLIPSE TS100, Nikon Instruments Inc., Tokyo, Japan). The culture medium was removed and washed with PBS, and the cultured cells in each well were fixed with 4% paraformaldehyde. To measure cell viability and quantify the neurite outgrowths of the treated SH-SY5Y in a 96-well plate, the neurite outgrowth staining kit (a two-color fluorescence assay kit) was used, following a previous report or the protocol in the manufacturer’s manual (publication number: MAN0007224), which included a cell membrane-stained fluorescent dye (orange-red fluorescence), a cell viability indicator (green fluorescence), and a reagent for background masking. The fluorescence ratios of Ex555nm/Em565nm and Ex495nm/Em515nm were determined for the neurite outgrowths and the cell viabilities, respectively. The value for the control was recognized as 100%, and each treatment was expressed relative to the control.

[4] = biological target: T2, mouse AChE activity in the brain extracts (Mus musculus, UniProt P21836); experiment: AChE activity in brain extracts of scopolamine-induced ICR mice; type: in vivo; conditions: PIC 50 mg/kg, donepezil 5 mg/kg oral; vs control p < 0.05
T2 construct: The protein content of the whole brain extracts from the mice was quantified using the BCA protein kit; from tissue; host or cells: whole brain extract of scopolamine-induced ICR mice
T2 sequence (P21836 32-614): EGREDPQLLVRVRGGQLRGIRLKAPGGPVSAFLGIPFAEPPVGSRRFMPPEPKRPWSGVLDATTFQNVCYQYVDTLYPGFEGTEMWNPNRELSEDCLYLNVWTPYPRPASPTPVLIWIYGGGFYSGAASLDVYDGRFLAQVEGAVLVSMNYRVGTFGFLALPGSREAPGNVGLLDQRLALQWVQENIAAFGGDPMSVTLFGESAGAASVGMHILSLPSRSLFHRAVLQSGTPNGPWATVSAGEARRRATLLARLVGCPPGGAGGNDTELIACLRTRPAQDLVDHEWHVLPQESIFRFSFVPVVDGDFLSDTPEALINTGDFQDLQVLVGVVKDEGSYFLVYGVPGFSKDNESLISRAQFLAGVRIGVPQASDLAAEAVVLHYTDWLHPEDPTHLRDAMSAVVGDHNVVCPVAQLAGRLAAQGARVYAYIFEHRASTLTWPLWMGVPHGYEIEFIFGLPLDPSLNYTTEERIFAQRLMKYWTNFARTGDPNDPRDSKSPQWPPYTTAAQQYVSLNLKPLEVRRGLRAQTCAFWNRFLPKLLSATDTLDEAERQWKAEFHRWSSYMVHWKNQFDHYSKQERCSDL
Procedure: The AChE activities in the mouse brain tissue extract were assayed following the method in Section 2.3, with some modifications. The protein content of the whole brain extracts from the mice was quantified using the BCA protein kit, with bovine serum albumin as the standard protein.

[5] = test system: mouse brain microvascular endothelial cell models; conditions: lipopolysaccharide-induced inflammation and oxidative stress; cited from earlier work
[6] = test system: LPS-treated Swiss albino mice; conditions: 6-day treatment 2.5 mg/kg/day, LPS 0.8 mg/kg i.p.; cited from earlier work
[7] = test system: db/db mice; conditions: oral 50 mg/kg for 2–3 weeks; cited from earlier work
[8] = oral administration to rats; cited from earlier work
[9] = rats, cited from earlier work
[10] = co-administration of PIC and RSV, each at 180 μmol/kg

Oc1cc(O)cc(C=Cc2ccc(O)c(O)c2)c1 [PIC, 3,5,3′,4′-tetrahydroxystilbene]
IC50 ([1]; 120 μM DPPH in methanol, 37 °C, 20 min): 40.2 µM
DPPH scavenging capacity, fold higher than that of RSV ([1]; ratio of IC50, vs RSV): 2.5 fold
DPPH scavenging capacity, fold higher than that of Trolox ([1]; ratio of IC50, vs Trolox): 2.07 fold
IC50 [2]: 282 µM
AChE inhibitory capacity, fold higher than that of RSV ([2]; vs RSV): 1.23 fold
neuroprotection: cell viability against Aβ peptide (25–35)-induced cell deaths [3]: elevated cell viabilities
AChE activity in the brain extracts [4]: reductions in AChE activities
BBB integrity [5]: protect BBB integrity
Aβ levels in brain extracts [6]: reduce Aβ levels in brain extracts
learning and memory functions [6]: ameliorate
blood glucose levels [7]: reduce blood glucose levels
bioavailability [8]: 50.7%
half-life [8]: 4.23 h
AUC0–8h of intact PIC/AUC0–8h of total PIC metabolites ([9]; PIC 90 μmol/kg): 18.6%
AUC0–8h of intact PIC/AUC0–8h of total PIC metabolites ([9]; PIC 180 μmol/kg): 23.9%
AUC0–8h of intact PIC/AUC0–8h of total PIC metabolites ([9]; PIC 360 μmol/kg): 25.1%
AUC0–8h in plasma, intact compound [9, 10]: 8.6 µM·h
AUC0–8h of intact PIC/AUC0–8h of total PIC metabolites [9, 10]: 16.3%
AUC0–8h in plasma, intact compound ([9]; intragastric, 90 μmol/kg): 4.3 µM·h
AUC0–8h in plasma, intact compound ([9]; intragastric, 180 μmol/kg): 12.3 µM·h
AUC0–8h in plasma, intact compound ([9]; intragastric, 360 μmol/kg): 20.6 µM·h
